Source: PubChem BioAssay AID2060491 (Molecular Pharmacology Branch, DTP, NCI, 2025)

System: 857933-349-R-J2-PDC complex spheroids, viability
Test: Anticancer human tumor 857933-349-R-J2-PDC patient-derived colon adenocarcinoma cell line growth inhibition [GQUAD]
Conditions: for IC50: curve of first compound; for viability, T/C: stronger effect = lower value
Summary of the method: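 Viability of tumor cells grown as complex spheroids with endothelial and stromal cells, exposed to drug combinations. Top concentration at or near clinical Cmax (else 10 microM), diluted in half-log increments.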

[1] = second compound 0.0316 µM, first compound 0.0316 µM
[2] = second compound 0.0316 µM, first compound 0.1 µM
[3] = second compound 0.0316 µM, first compound 0.316 µM
[4] = second compound 0.0316 µM, first compound 1 µM
[5] = second compound 0.0316 µM, first compound 3.16 µM
[6] = second compound 0.0316 µM, first compound 10 µM
[7] = second compound 0.1 µM, first compound 0.0316 µM
[8] = second compound 0.1 µM, first compound 0.1 µM
[9] = second compound 0.1 µM, first compound 0.316 µM
[10] = second compound 0.1 µM, first compound 1 µM
[11] = second compound 0.1 µM, first compound 3.16 µM
[12] = second compound 0.1 µM, first compound 10 µM
[13] = second compound 0.316 µM, first compound 0.0316 µM
[14] = second compound 0.316 µM, first compound 0.1 µM
[15] = second compound 0.316 µM, first compound 0.316 µM
[16] = second compound 0.316 µM, first compound 1 µM
[17] = second compound 0.316 µM, first compound 3.16 µM
[18] = second compound 0.316 µM, first compound 10 µM
[19] = second compound 1 µM, first compound 0.0316 µM
[20] = second compound 1 µM, first compound 0.1 µM
[21] = second compound 1 µM, first compound 0.316 µM
[22] = second compound 1 µM, first compound 1 µM
[23] = second compound 1 µM, first compound 3.16 µM
[24] = second compound 1 µM, first compound 10 µM
[25] = second compound 3.16 µM, first compound 0.0316 µM
[26] = second compound 3.16 µM, first compound 0.1 µM
[27] = second compound 3.16 µM, first compound 0.316 µM
[28] = second compound 3.16 µM, first compound 1 µM
[29] = second compound 3.16 µM, first compound 3.16 µM
[30] = second compound 3.16 µM, first compound 10 µM
[31] = second compound 10 µM, first compound 0.0316 µM
[32] = second compound 10 µM, first compound 0.1 µM
[33] = second compound 10 µM, first compound 0.316 µM
[34] = second compound 10 µM, first compound 1 µM
[35] = second compound 10 µM, first compound 3.16 µM
[36] = second compound 10 µM, first compound 10 µM
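Further: spheroids exposed to compounds for one week before readout.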
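Wherever viability, T/C is given: percent viability relative to vehicle DMSO wells taken as 100%.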

Compound: CC(C)n1c(=O)n(C)c2cnc3cc(F)c(-c4ccc(OCCCN5CCCCC5)nc4)cc3c21 + Cc1[nH]c2ccc(F)cc2c1-c1nc2c3cccnc3c3ncccc3c2[nH]1
- IC50 (second compound 0.0316 µM): > 10000 nM
- IC50 (second compound 0.1 µM): > 10000 nM
- IC50 (second compound 0.316 µM): > 10000 nM
- IC50 (second compound 1 µM): > 10000 nM
- IC50 (second compound 3.16 µM): > 10000 nM
- IC50 (second compound 10 µM): > 10000 nM
- viability, T/C [1]: 100%
- viability, T/C [2]: 102%
- viability, T/C [3]: 107%
- viability, T/C [4]: 102%
- viability, T/C [5]: 107%
- viability, T/C [6]: 84%
- viability, T/C [7]: 94.8%
- viability, T/C [8]: 115%
- viability, T/C [9]: 98.5%
- viability, T/C [10]: 95.4%
- viability, T/C [11]: 105%
- viability, T/C [12]: 79.9%
- viability, T/C [13]: 102%
- viability, T/C [14]: 101%
- viability, T/C [15]: 102%
- viability, T/C [16]: 107%
- viability, T/C [17]: 110%
- viability, T/C [18]: 83.5%
- viability, T/C [19]: 98.4%
- viability, T/C [20]: 106%
- viability, T/C [21]: 101%
- viability, T/C [22]: 107%
- viability, T/C [23]: 128%
- viability, T/C [24]: 79.3%
- viability, T/C [25]: 105%
- viability, T/C [26]: 103%
- viability, T/C [27]: 115%
- viability, T/C [28]: 98.6%
- viability, T/C [29]: 111%
- viability, T/C [30]: 83.8%
- viability, T/C [31]: 102%
- viability, T/C [32]: 103%
- viability, T/C [33]: 108%
- viability, T/C [34]: 103%
- viability, T/C [35]: 103%
- viability, T/C [36]: 88.9%

Compound: CC1COCCN1c1cc(-c2ccnn2C)c2ccnc(-c3ccn[nH]3)c2n1 (stereo not drawn) + Cc1[nH]c2ccc(F)cc2c1-c1nc2c3cccnc3c3ncccc3c2[nH]1
- IC50 (second compound 0.0316 µM): 250 nM
- IC50 (second compound 0.1 µM): 491 nM
- IC50 (second compound 0.316 µM): 327 nM
- IC50 (second compound 1 µM): 280 nM
- IC50 (second compound 3.16 µM): 197 nM
- IC50 (second compound 10 µM): 277 nM
- viability, T/C [1]: 73.7%
- viability, T/C [2]: 53.2%
- viability, T/C [3]: 50.3%
- viability, T/C [4]: 43.8%
- viability, T/C [5]: 55.3%
- viability, T/C [6]: 44.8%
- viability, T/C [7]: 69.6%
- viability, T/C [8]: 70.9%
- viability, T/C [9]: 53.2%
- viability, T/C [10]: 43.5%
- viability, T/C [11]: 46.9%
- viability, T/C [12]: 44.2%
- viability, T/C [13]: 71.7%
- viability, T/C [14]: 56.6%
- viability, T/C [15]: 49.2%
- viability, T/C [16]: 48.8%
- viability, T/C [17]: 47.4%
- viability, T/C [18]: 46.6%
- viability, T/C [19]: 61%
- viability, T/C [20]: 61.5%
- viability, T/C [21]: 48.6%
- viability, T/C [22]: 43.1%
- viability, T/C [23]: 52.8%
- viability, T/C [24]: 50.1%
- viability, T/C [25]: 75.2%
- viability, T/C [26]: 56%
- viability, T/C [27]: 45%
- viability, T/C [28]: 43.8%
- viability, T/C [29]: 44.6%
- viability, T/C [30]: 44.7%
- viability, T/C [31]: 74.4%
- viability, T/C [32]: 57%
- viability, T/C [33]: 50.4%
- viability, T/C [34]: 43.1%
- viability, T/C [35]: 46.1%
- viability, T/C [36]: 42.6%

Compound: CC1COCCN1c1cc(C2(O)CC3CCC(C2)O3)c2cnn(-c3ccn[nH]3)c2n1 (stereo not drawn) + Cc1[nH]c2ccc(F)cc2c1-c1nc2c3cccnc3c3ncccc3c2[nH]1
- IC50 (second compound 0.0316 µM): 289 nM
- IC50 (second compound 0.1 µM): 273 nM
- IC50 (second compound 0.316 µM): 440 nM
- IC50 (second compound 1 µM): 312 nM
- IC50 (second compound 3.16 µM): 699 nM
- IC50 (second compound 10 µM): 267 nM
- viability, T/C [1]: 76.9%
- viability, T/C [2]: 64.5%
- viability, T/C [3]: 49.6%
- viability, T/C [4]: 41.2%
- viability, T/C [5]: 47.2%
- viability, T/C [6]: 42.5%
- viability, T/C [7]: 69.5%
- viability, T/C [8]: 61.1%
- viability, T/C [9]: 44.6%
- viability, T/C [10]: 47.3%
- viability, T/C [11]: 50.3%
- viability, T/C [12]: 51.4%
- viability, T/C [13]: 67.8%
- viability, T/C [14]: 65.5%
- viability, T/C [15]: 52.7%
- viability, T/C [16]: 42.3%
- viability, T/C [17]: 45.8%
- viability, T/C [18]: 42.9%
- viability, T/C [19]: 58.2%
- viability, T/C [20]: 59.8%
- viability, T/C [21]: 46.5%
- viability, T/C [22]: 44.6%
- viability, T/C [23]: 46.4%
- viability, T/C [24]: 47.2%
- viability, T/C [25]: 64.9%
- viability, T/C [26]: 59.6%
- viability, T/C [27]: 52.4%
- viability, T/C [28]: 46.2%
- viability, T/C [29]: 48.4%
- viability, T/C [30]: 45.5%
- viability, T/C [31]: 77.4%
- viability, T/C [32]: 61.2%
- viability, T/C [33]: 49%
- viability, T/C [34]: 42.4%
- viability, T/C [35]: 42%
- viability, T/C [36]: 46.7%

Compound: CC1COCCN1c1cc(C2(S(C)(=N)=O)CC2)nc(-c2ccnc3[nH]ccc23)n1 (stereo not drawn) + Cc1[nH]c2ccc(F)cc2c1-c1nc2c3cccnc3c3ncccc3c2[nH]1
- IC50 (second compound 0.0316 µM): 6700 nM
- IC50 (second compound 0.1 µM): 6020 nM
- IC50 (second compound 0.316 µM): 6090 nM
- IC50 (second compound 1 µM): 7100 nM
- IC50 (second compound 3.16 µM): 7160 nM
- IC50 (second compound 10 µM): 6450 nM
- viability, T/C [1]: 101%
- viability, T/C [2]: 103%
- viability, T/C [3]: 88.5%
- viability, T/C [4]: 75.4%
- viability, T/C [5]: 59.6%
- viability, T/C [6]: 45%
- viability, T/C [7]: 99.9%
- viability, T/C [8]: 101%
- viability, T/C [9]: 93.3%
- viability, T/C [10]: 80.9%
- viability, T/C [11]: 58.8%
- viability, T/C [12]: 43%
- viability, T/C [13]: 106%
- viability, T/C [14]: 108%
- viability, T/C [15]: 90.2%
- viability, T/C [16]: 79.5%
- viability, T/C [17]: 58.9%
- viability, T/C [18]: 43.1%
- viability, T/C [19]: 103%
- viability, T/C [20]: 98.2%
- viability, T/C [21]: 91.9%
- viability, T/C [22]: 83.6%
- viability, T/C [23]: 59.7%
- viability, T/C [24]: 45.7%
- viability, T/C [25]: 108%
- viability, T/C [26]: 96.3%
- viability, T/C [27]: 81.2%
- viability, T/C [28]: 86.3%
- viability, T/C [29]: 60.4%
- viability, T/C [30]: 43.6%
- viability, T/C [31]: 104%
- viability, T/C [32]: 98.5%
- viability, T/C [33]: 92.5%
- viability, T/C [34]: 90.9%
- viability, T/C [35]: 62.3%
- viability, T/C [36]: 42.1%
